The values below come from ChEMBL document CHEMBL1153108, “Neolignans from Piper kadsura and their anti-neuroinflammatory activity” (Bioorg Med Chem Lett, 2010).

pIC50: −log10 of the molar value. Calls of active or inactive are those of the source. The calls are words filed in the database; no cut-off is given here.

Data set [1] relates to BV-2. The experiment in a line: Antineuroinflammatory activity in mouse BV2 cells assessed as inhibition of LPS-induced nitric oxide production after 24 hrs by Griess reagent method. It is filed as functional, cell-based. The settings on record: for pIC50: BV-2, 24 h. On the technique in general: The Griess reaction detects nitrite, a stable product of nitric oxide.
The subject of data set [2] is BV-2. Nature of the data set: Antineuroinflammatory activity in mouse BV2 cells assessed as inhibition of LPS-induced nitric oxide production at 20 uM after 24 hrs by Griess reagent method. The settings on record: for inhibition at 20 µM: BV-2, 24 h. It is filed as functional.
The nature of data set [3]: Cytotoxicity against mouse BV2 cells by MTT assay. The data set is classed as cell-based, BV-2. The settings on record: read-out: INH.
The test system of data set [4] is BV-2. The experiment in a line: Inhibition of LPS-induced iNOS expression in mouse BV2 cells at 5 to 20 uM after 6 hrs by Western blot analysis. It is filed as functional, cell-based. (A western blot detects proteins with antibodies after separation by electrophoresis.)
Data set [5] concerns the target T1, Nitric oxide synthase, inducible (Mus musculus) (UniProt P29477).
T1 sequence (whole entry): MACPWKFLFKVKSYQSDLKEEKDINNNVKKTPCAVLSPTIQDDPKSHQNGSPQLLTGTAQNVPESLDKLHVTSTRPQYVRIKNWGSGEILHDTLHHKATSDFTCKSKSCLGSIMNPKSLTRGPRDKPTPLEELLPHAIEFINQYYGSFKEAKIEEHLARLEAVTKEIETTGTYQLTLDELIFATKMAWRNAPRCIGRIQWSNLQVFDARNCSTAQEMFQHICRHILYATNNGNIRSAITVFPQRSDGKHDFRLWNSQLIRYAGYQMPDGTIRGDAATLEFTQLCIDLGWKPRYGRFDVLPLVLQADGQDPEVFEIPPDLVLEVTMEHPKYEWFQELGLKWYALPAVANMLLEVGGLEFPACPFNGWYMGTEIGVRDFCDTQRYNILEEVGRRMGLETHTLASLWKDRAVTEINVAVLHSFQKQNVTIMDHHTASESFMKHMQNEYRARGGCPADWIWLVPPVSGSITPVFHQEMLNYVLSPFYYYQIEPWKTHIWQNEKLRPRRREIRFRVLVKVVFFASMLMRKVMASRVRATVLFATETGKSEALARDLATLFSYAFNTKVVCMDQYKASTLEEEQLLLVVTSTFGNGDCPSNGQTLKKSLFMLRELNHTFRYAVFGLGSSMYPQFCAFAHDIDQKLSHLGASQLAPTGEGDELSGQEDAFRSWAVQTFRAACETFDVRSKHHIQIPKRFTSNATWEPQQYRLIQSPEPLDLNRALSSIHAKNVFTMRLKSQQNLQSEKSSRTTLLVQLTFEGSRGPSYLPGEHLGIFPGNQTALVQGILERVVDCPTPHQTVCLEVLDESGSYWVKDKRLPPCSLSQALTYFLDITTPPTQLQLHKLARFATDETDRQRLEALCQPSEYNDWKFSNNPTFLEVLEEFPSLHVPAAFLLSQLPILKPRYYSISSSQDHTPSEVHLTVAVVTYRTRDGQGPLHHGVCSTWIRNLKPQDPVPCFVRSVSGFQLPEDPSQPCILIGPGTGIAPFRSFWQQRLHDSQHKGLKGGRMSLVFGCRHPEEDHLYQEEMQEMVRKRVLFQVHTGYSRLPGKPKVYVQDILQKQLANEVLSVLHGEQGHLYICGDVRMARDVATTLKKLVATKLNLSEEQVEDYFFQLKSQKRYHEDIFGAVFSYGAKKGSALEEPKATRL
Nature of the data set: Inhibition of iNOS in LPS-stimulated mouse BV2 cells at 25 to 100 uM after 24 hrs by Griess reagent method. To be noted: BV-2. It is filed as cell-based.

A short description of data set [6]: Effect on nitric oxide radical scavenging activity in sodium nitroprusside solution assessed as nitric oxide release after 15 mins by Griess reagent method. The data set is classed as physicochemical. To be noted: 0.25 h.

One may read the pIC50 as the IC50 on a negative log10 scale, so that one unit is a factor of ten. The inhibition is how much of the control response was suppressed. `C=CCc1ccc(OC)c(OC(C)C(OC(C)=O)c2ccc(OC)c(OC)c2)c1OC` (stereo not given): in data set [1], the pIC50 was 4.48. Besides, the inhibition at 20 µM in data set [2] worked out at 27.2%.

Consider `C=CCC1=C[C@]2(OC)[C@H](C)[C@@H](c3ccc(OC)c(OC)c3)[C@H](C1=O)[C@@H]2OC(C)=O`, for which, in data set [2], the inhibition result is “inactive”.

For the compound `C=CC[C@]12C(=O)C=C(OC)[C@]3(OC)[C@@H]1[C@]3(C)[C@H]2c1ccc2c(c1)OCO2`, the inhibition result in data set [2] was “inactive”.

As to `C=CCC1=C[C@]2(OC)C(=CC1=O)O[C@H](c1ccc3c(c1)OCO3)[C@H]2C` [DENUDATIN A], the cytotoxicity in data set [3] amounted to 23.2%.

For the compound `C=CCC1=CC(OC)(/C(C)=C/c2ccc3c(c2)OCO3)C(OC)=CC1=O` (stereo not given) [FUTOQUINOL], in data set [1], the inhibition result is “Dose-dependent effect” and the negative logarithm of the IC50 (pIC50) is 4.77. In addition, the inhibition at 20 µM in data set [2] was 55.3%.

For `C=CCC1=C[C@@]2(OC)C(=CC1=O)O[C@H](c1ccc(OC)c(OC)c1)[C@H]2C` [KADSURENONE], in data set [2], the inhibition result is “inactive”. In addition, the cytotoxicity in data set [3] was 21.3%.

Regarding `C=CCC1=CC2=C(OC)[C@H](C1=O)[C@]2(C)[C@H](O)c1ccc2c(c1)OCO2` [PIPERKADSIN C], in data set [1], the inhibition result was “Dose-dependent effect” and the pIC50 was 4.84. Besides, in data set [4], the outcome was inactive. The inhibition at 20 µM in data set [2] turned out to be 60.8%. Further, in data set [5], the outcome was Active. For the same compound, the Activity result in data set [6] was “Not Active”.

For `CNC(=N)NCCC[C@H](N)C(=O)O` [TILARGININE], the negative logarithm of the IC50 (pIC50) in data set [1] was 4.77. Besides, the inhibition at 20 µM in data set [2] amounted to 55.3%.

Take `C=CCC1=CC(OC)(/C(C)=C/c2ccc(OC)c(OC)c2)C(OC)=CC1=O` (stereo not given) [WALLICHININE]: the negative logarithm of the IC50 (pIC50) in data set [1] was 4.34. For the same compound, the inhibition at 20 µM in data set [2] amounted to 18.5%.
